Test results reported in BindingDB's records for doi:10.1016/S0960-894X(97)00219-9 (1997).

Molecular target: T1, Cysteinyl leukotriene receptor 1 (Cavia porcellus, UniProt Q2NNR5)
T1 sequence (Q2NNR5 whole entry): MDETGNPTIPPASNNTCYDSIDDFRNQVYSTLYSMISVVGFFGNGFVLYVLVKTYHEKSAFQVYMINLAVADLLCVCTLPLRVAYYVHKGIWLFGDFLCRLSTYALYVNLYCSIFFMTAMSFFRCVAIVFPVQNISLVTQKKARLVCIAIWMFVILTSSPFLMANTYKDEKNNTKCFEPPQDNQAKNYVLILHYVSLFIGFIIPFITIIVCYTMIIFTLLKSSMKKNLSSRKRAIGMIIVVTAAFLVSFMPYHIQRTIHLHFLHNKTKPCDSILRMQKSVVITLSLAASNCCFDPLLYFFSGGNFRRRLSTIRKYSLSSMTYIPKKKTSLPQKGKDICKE
Assay: ChEBML_52039
Description: Dissociation constant for CysLT1 receptor was determined by the displacement of [3H]LTD4 from guinea pig lung membranes

Kd: 30.1 µM
Structure (SMILES): COc1cc(C(=O)NS(=O)(=O)c2ccccc2)ccc1Cn1ncc2ccc(NC(=O)OC3CCCC3)cc21
